Test results reported in patent US20260022142A1, “MACROCYCLIC IMMUNOMODULATORS” (Bristol-Myers Squibb Company, priority 2022, published 2026).
Numbered stars: 1 amine (or outer) side, 2 acyl side, 3 side chain; on linkers, the order of the positions; unused ones are H or OH. Bridge positions count the residues as written; N and C are the ends. Square brackets hold non-standard residues; d marks the D form. Peptide text beside a SMILES is read from it. * marks the point of attachment. ξ: configuration not given here. Phe(4-COOH) = N[C@@H](Cc1ccc(C(=O)O)cc1)C(=O)O; Bip = N[C@@H](Cc1ccc(-c2ccccc2)cc1)C(=O)O; Phe(4-NH2) = Nc1ccc(C[C@H](N)C(=O)O)cc1; Phe(3-Me) = Cc1cccc(C[C@H](N)C(=O)O)c1; Phe(4-F) = N[C@@H](Cc1ccc(F)cc1)C(=O)O; βAsp = O=C(O)[C@H](CC(=O)[*:2])N[*:1]; Val(3-OH) = CC(C)(O)[C@H](N)C(=O)O; 3Pal = N[C@@H](Cc1cccnc1)C(=O)O; 4Pal = N[C@@H](Cc1ccncc1)C(=O)O; Cha = N[C@@H](CC1CCCCC1)C(=O)O; Cit = NC(=O)NCCC[C@H](N)C(=O)O; Thr(3ξ) = CC(O)[C@H](N)C(=O)O; 12Ado = NCCCCCCCCCCCC(=O)O; Carboxymethyl = O=C(O)C*; Orn = NCCC[C@H](N)C(=O)O; Aun = NCCCCCCCCCCC(=O)O; Dab = NCC[C@H](N)C(=O)O; Dap = NC[C@H](N)C(=O)O; AEEA = NCCOCCOCC(=O)O; Ac3c = NC1(C(=O)O)CC1

Biological target: T1, PD-1/PD-L1 interaction (PE-labeled human PD-L1-Ig binding to Jurkat cell line over-expressing human PD-1) (Homo sapiens, UniProt Q15116)
T1 construct: expressed in transfected cells; host or cells: Jurkat
Assay: Jurkat-PD-1 Cell Binding High-Content Screening Assay (CBA)
Type: cell-based
Details: Jurkat cell line over-expressing human PD-1; PE-labeled PD-L1-Ig 20 nM final; read-out: Jurkat hPD1-PDL1 IC50
Outline: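 First, compound is added to PD-1-expressing Jurkat cells in serum-containing DMEM and left 2 h at 37° C. Next, PE-conjugated PD-L1-Ig is introduced at 20 nM final concentration for 1 hour. Finally, cells are fixed in 4% paraformaldehyde with Hoechst 33342, washed and imaged.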

T1 sequence (Q15116 25-288): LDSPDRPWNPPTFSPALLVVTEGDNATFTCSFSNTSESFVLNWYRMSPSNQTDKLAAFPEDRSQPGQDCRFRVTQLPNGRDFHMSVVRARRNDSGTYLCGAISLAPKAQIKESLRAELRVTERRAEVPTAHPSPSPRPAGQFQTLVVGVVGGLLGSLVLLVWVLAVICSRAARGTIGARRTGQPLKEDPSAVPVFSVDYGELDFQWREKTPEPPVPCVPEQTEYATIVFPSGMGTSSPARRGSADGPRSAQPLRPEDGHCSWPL

Compound | IC50
Cc1cccc(C[C@@H]2NC(=O)[C@H](CC(=O)O)NC(=O)[C@H](Cc3ccc(OCC(=O)O)cc3)NC(=O)[C@H](Cc3ccc(N)cc3)NC(=O)CSC[C@@H](C(=O)N[C@@H](CCN)C(=O)NCCCCCCCCCCC(=O)O)NC(=O)[C@H]([C@@H](C)O)NC(=O)[C@H](C(C)C)NC(=O)[C@H](CC3CCCCC3)NC(=O)[C@H](CCN)NC(=O)[C@@H](CC(C)C)NC(=O)[C@H](CCCN)NC(=O)[C@H](Cc3ccc(OCC(=O)O)cc3)NC(=O)[C@H](Cc3ccc(-c4ccccc4)cc3)NC(=O)[C@H](Cc3ccc(OCC(=O)O)cc3)NC2=O)c1 [Compound 2147] ({CH2CO}-[Phe(4-NH2)]Y(Carboxymethyl)D[Phe(3-Me)]Y(Carboxymethyl)[Bip]Y(Carboxymethyl)[Orn][dL][Dab][Cha]VTC[Dab][Aun]-OH; thioether N-14) | 0.0172 µM
Cc1cccc(C[C@@H]2NC(=O)[C@H](CC(=O)O)NC(=O)[C@H](Cc3ccc(OCC(=O)O)cc3)NC(=O)[C@H](CN)NC(=O)CSC[C@@H](C(=O)N[C@@H](C)C(=O)N[C@@H](CC(=O)NCCOCCOCC(=O)N[C@@H](CC(=O)O)C(=O)NCCOCCOCC(=O)NCCCCCCCCCCC(=O)O)C(=O)O)NC(=O)[C@H]([C@@H](C)O)NC(=O)[C@H](C(C)C)NC(=O)[C@H](CC3CCCCC3)NC(=O)[C@H](CCN)NC(=O)[C@@H](CC(C)C)NC(=O)[C@H](CCCN)NC(=O)[C@H](CCCNC(N)=O)NC(=O)[C@H](Cc3ccc(-c4ccccc4)cc3)NC(=O)[C@H](C(C)C)NC2=O)c1 [Compound 1019] ({CH2CO}-[Dap]Y(Carboxymethyl)D[Phe(3-Me)]V[Bip][Cit][Orn][dL][Dab][Cha]VTCA[βAsp][AEEA]D[AEEA][Aun]-OH; thioether N-14) | 0.0068 µM
Cc1cccc(C[C@@H]2NC(=O)[C@H](CC(=O)O)NC(=O)[C@H](Cc3c[nH]cn3)NC(=O)[C@H](CCCNC(=N)N)NC(=O)CSC[C@@H](C(=O)N[C@@H](CCCCN)C(=O)NCCCCCCCCCCC(=O)O)NC(=O)[C@H](CCCN)NC(=O)[C@H](C(C)C)NC(=O)[C@H](CC3CCCCC3)NC(=O)[C@H](CCN)NC(=O)[C@@H](CC(C)C)NC(=O)[C@H](CCCN)NC(=O)[C@H](C(C)C)NC(=O)[C@H](Cc3ccc(-c4ccccc4)cc3)NC(=O)[C@H](C(C)C)NC2=O)c1 [Compound 3296] ({CH2CO}-RHD[Phe(3-Me)]V[Bip]V[Orn][dL][Dab][Cha]V[Orn]CK[Aun]-OH; thioether N-14) | 0.0203 µM
Cc1cccc(C[C@@H]2NC(=O)[C@H](CC(=O)O)NC(=O)[C@H](Cc3ccc(C(=O)O)cc3)NC(=O)[C@H](Cc3ccncc3)NC(=O)CSC[C@@H](C(=O)NC3(C(=O)NCCCCCCCCCCC(=O)O)CC3)NC(=O)[C@H]([C@@H](C)O)NC(=O)[C@H](C(C)C)NC(=O)[C@H](CC3CCCCC3)NC(=O)[C@H](CCN)NC(=O)[C@@H](CC(C)C)NC(=O)[C@H](CCCN)NC(=O)[C@H](Cc3ccc(OCC(=O)O)cc3)NC(=O)[C@H](Cc3ccc(-c4ccccc4)cc3)NC(=O)[C@H](Cc3ccc(OCC(=O)O)cc3)NC2=O)c1 [Compound 2167] ({CH2CO}-[4Pal][Phe(4-COOH)]D[Phe(3-Me)]Y(Carboxymethyl)[Bip]Y(Carboxymethyl)[Orn][dL][Dab][Cha]VTC[Ac3c][Aun]-OH; thioether N-14) | 0.0094 µM
Cc1cccc(C[C@@H]2NC(=O)[C@H](CC(=O)O)NC(=O)[C@H](Cc3ccc(OCC(=O)O)cc3)NC(=O)[C@H](CN)NC(=O)CSC[C@@H](C(=O)N[C@@H](CCN)C(=O)NCCOCCOCC(=O)NCCCCCCCCCCC(=O)O)NC(=O)[C@H](CCCN)NC(=O)[C@H](C(C)C)NC(=O)[C@H](CC3CCCCC3)NC(=O)[C@H](CCN)NC(=O)[C@@H](CC(C)C)NC(=O)[C@H](CCCN)NC(=O)[C@H](Cc3ccc(O)cc3)NC(=O)[C@H](Cc3ccc(-c4ccccc4)cc3)NC(=O)[C@H](Cc3ccc(C(=O)O)cc3)NC2=O)c1 [Compound 2060] ({CH2CO}-[Dap]Y(Carboxymethyl)D[Phe(3-Me)][Phe(4-COOH)][Bip]Y[Orn][dL][Dab][Cha]V[Orn]C[Dab][AEEA][Aun]-OH; thioether N-14) | 0.0043 µM
Cc1cccc(C[C@@H]2NC(=O)[C@H](CC(=O)O)NC(=O)[C@H](Cc3ccc(OCC(=O)O)cc3)NC(=O)[C@H](Cc3cccnc3)NC(=O)CSC[C@@H](C(=O)N[C@@H](CCN)C(=O)NCCCCCCCCCCC(=O)O)NC(=O)[C@H]([C@@H](C)O)NC(=O)[C@H](C(C)C)NC(=O)[C@H](CC3CCCCC3)NC(=O)[C@H](CCN)NC(=O)[C@@H](CC(C)C)NC(=O)[C@H](CCCN)NC(=O)[C@H](CCCNC(N)=O)NC(=O)[C@H](Cc3ccc(-c4ccccc4)cc3)NC(=O)[C@H](C(C)C)NC2=O)c1 [Compound 2832] ({CH2CO}-[3Pal]Y(Carboxymethyl)D[Phe(3-Me)]V[Bip][Cit][Orn][dL][Dab][Cha]VTC[Dab][Aun]-OH; thioether N-14) | 0.048 µM
CC(C)C[C@H]1NC(=O)[C@H](CCCN)NC(=O)[C@H](C(C)C)NC(=O)[C@H](Cc2ccc(-c3ccccc3)cc2)NC(=O)[C@H](C(C)C)NC(=O)[C@H](Cc2c[nH]c3ccccc23)NC(=O)[C@H](CC(=O)O)NC(=O)[C@H](Cc2ccc(C(=O)O)cc2)NC(=O)[C@H](Cc2ccc(OCC(=O)O)cc2)NC(=O)CSC[C@@H](C(=O)NCC(=O)NCCOCCOCC(=O)N[C@@H](CCCN)C(=O)NCCCCCCCCCCCC(=O)O)NC(=O)[C@H](CN)NC(=O)[C@H](C(C)C)NC(=O)[C@H](CC2CCCCC2)NC(=O)[C@H](CCN)NC1=O [Compound 3171] ({CH2CO}-Y(Carboxymethyl)[Phe(4-COOH)]DWV[Bip]V[Orn][dL][Dab][Cha]V[Dap]CG[AEEA][Orn][12Ado]-OH; thioether N-14) | 0.0061 µM

Now from value to compound:

IC50 | Compound
0.0073 µM | Cc1cccc(C[C@@H]2NC(=O)[C@H](CC(=O)O)NC(=O)[C@H](Cc3ccc(OCC(=O)O)cc3)NC(=O)[C@H](CCN)NC(=O)CSC[C@@H](C(=O)N[C@@H](CCN)C(=O)NCCCCCCCCCCCC(=O)O)NC(=O)[C@H](CCCN)NC(=O)[C@H](C(C)(C)O)NC(=O)[C@H](CC3CCCCC3)NC(=O)[C@H](CCN)NC(=O)[C@@H](CC(C)C)NC(=O)[C@H](CCCN)NC(=O)[C@H](Cc3ccc(OCC(=O)O)cc3)NC(=O)[C@H](Cc3ccc(-c4ccccc4)cc3)NC(=O)[C@H](Cc3ccc(OCC(=O)O)cc3)NC2=O)c1 [Compound 3626] ({CH2CO}-[Dab]Y(Carboxymethyl)D[Phe(3-Me)]Y(Carboxymethyl)[Bip]Y(Carboxymethyl)[Orn][dL][Dab][Cha][Val(3-OH)][Orn]C[Dab][12Ado]-OH; thioether N-14)
0.0114 µM | Cc1cccc(C[C@@H]2NC(=O)[C@H](CC(=O)O)NC(=O)[C@H](Cc3ccc(OCC(=O)O)cc3)NC(=O)[C@H](CN)NC(=O)CSC[C@@H](C(=O)N[C@@H](CCN)C(=O)NCCCCCCCCCCC(=O)O)NC(=O)[C@H](Cc3cnc[nH]3)NC(=O)[C@H](C(C)O)NC(=O)[C@H](CC3CCCCC3)NC(=O)[C@H](CCN)NC(=O)[C@@H](CC(C)C)NC(=O)[C@H](CCCN)NC(=O)[C@H](Cc3ccc(OCC(=O)O)cc3)NC(=O)[C@H](Cc3ccc(-c4ccccc4)cc3)NC(=O)[C@H](Cc3ccc(C(=O)O)cc3)NC2=O)c1 (stereo partly drawn) [Compound 3708] ({CH2CO}-[Dap]Y(Carboxymethyl)D[Phe(3-Me)][Phe(4-COOH)][Bip]Y(Carboxymethyl)[Orn][dL][Dab][Cha][Thr(3ξ)]HC[Dab][Aun]-OH; thioether N-14)
0.0096 µM | Cc1cccc(C[C@@H]2NC(=O)[C@H](CC(=O)O)NC(=O)[C@H](Cc3ccc(OCC(=O)O)cc3)NC(=O)[C@H](Cc3ccc(F)cc3)NC(=O)CSC[C@@H](C(=O)N[C@@H](CCN)C(=O)NCCOCCOCC(=O)NCCOCCOCC(=O)NCCCCCCCCCCC(=O)O)NC(=O)[C@H](Cc3cnc[nH]3)NC(=O)[C@H](C(C)(C)O)NC(=O)[C@H](CC3CCCCC3)NC(=O)[C@H](CCN)NC(=O)[C@@H](CC(C)C)NC(=O)[C@H](CCCN)NC(=O)[C@H](Cc3ccc(C(=O)O)cc3)NC(=O)[C@H](Cc3ccc(-c4ccccc4)cc3)NC(=O)[C@H](Cc3ccc(C(=O)O)cc3)NC2=O)c1 [Compound 3767] ({CH2CO}-[Phe(4-F)]Y(Carboxymethyl)D[Phe(3-Me)][Phe(4-COOH)][Bip][Phe(4-COOH)][Orn][dL][Dab][Cha][Val(3-OH)]HC[Dab][AEEA][AEEA][Aun]-OH; thioether N-14)
0.0263 µM | CC(=O)NCCCC[C@@H]1NC(=O)CSC[C@@H](C(=O)N[C@@H](CCN)C(=O)NCCCCCCCCCCC(=O)O)NC(=O)[C@H](C(C)O)NC(=O)[C@H](C(C)C)NC(=O)[C@H](CC2CCCCC2)NC(=O)[C@H](CCN)NC(=O)[C@@H](CC(C)C)NC(=O)[C@H](CCCN)NC(=O)[C@H](CCCNC(N)=O)NC(=O)[C@H](Cc2ccc(-c3ccccc3)cc2)NC(=O)[C@H](C(C)C)NC(=O)[C@H](Cc2cccc(C)c2)NC(=O)[C@H](CC(=O)O)NC(=O)[C@H](Cc2ccc(OCC(=O)O)cc2)NC1=O (stereo partly drawn) [Compound 3538] ({CH2CO}-K(Ac)Y(Carboxymethyl)D[Phe(3-Me)]V[Bip][Cit][Orn][dL][Dab][Cha]V[Thr(3ξ)]C[Dab][Aun]-OH; thioether N-14)
0.0277 µM | CC(C)C[C@H]1NC(=O)[C@H](CCCN)NC(=O)[C@H](C(C)C)NC(=O)[C@H](Cc2ccc(-c3ccccc3)cc2)NC(=O)[C@H](C(C)C)NC(=O)[C@H](Cc2c[nH]c3ccccc23)NC(=O)[C@H](CC(=O)O)NC(=O)[C@H](Cc2ccc(OCC(=O)O)cc2)NC(=O)[C@H](C(C)O)NC(=O)CSC[C@@H](C(=O)N[C@@H](CCN)C(=O)NCCCCCCCCCCC(=O)O)NC(=O)[C@H](CO)NC(=O)[C@H](C(C)O)NC(=O)[C@H](CC2CCCCC2)NC(=O)[C@H](CCN)NC1=O (stereo partly drawn) [Compound 3664] ({CH2CO}-[Thr(3ξ)]Y(Carboxymethyl)DWV[Bip]V[Orn][dL][Dab][Cha][Thr(3ξ)]SC[Dab][Aun]-OH; thioether N-14)
